Data reported in patent US9763961B2, “Compositions that modulate the activity of estrogen receptors and estrogen-related receptors and methods for use” (CITY OF HOPE, priority 2005, dated 2017).

Columns and labels:
[1] = target: T1, human placental microsomal aromatase (Homo sapiens, UniProt P11511); assay: In vitro aromatase inhibition assay on human placental microsomal aromatase preparation; type: biochemical; details: increasing concentrations (200 pM-200 mM), FIG. 6A
T1 construct: performed on a human placental microsomal aromatase preparation; from tissue; host or cells: human placenta, microsomes
T1 sequence (P11511 1-503): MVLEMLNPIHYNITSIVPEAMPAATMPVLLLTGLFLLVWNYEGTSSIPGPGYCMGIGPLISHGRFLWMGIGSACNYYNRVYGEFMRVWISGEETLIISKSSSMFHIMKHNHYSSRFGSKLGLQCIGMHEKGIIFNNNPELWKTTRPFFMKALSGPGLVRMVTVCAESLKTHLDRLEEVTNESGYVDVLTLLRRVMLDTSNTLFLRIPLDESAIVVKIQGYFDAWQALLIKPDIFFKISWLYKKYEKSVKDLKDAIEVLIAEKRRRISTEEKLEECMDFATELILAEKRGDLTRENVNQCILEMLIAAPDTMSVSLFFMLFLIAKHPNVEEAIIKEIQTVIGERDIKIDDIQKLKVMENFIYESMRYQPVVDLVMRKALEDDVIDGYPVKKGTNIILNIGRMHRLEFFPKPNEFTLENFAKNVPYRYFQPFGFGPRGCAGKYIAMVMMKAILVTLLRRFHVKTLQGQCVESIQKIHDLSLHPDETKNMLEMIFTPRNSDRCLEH
Description: (§1) To evaluate the effect of chalcones on aromatase activity, we performed both in vitro assay and in-cell assay with chalcones. […] In addition, MCF-7 aro cells, which are stable aromatase-expressing breast cancer cell line, were incubated with chalcones.
(§2) Referring to FIG. 6, the effect of Compound No. 1-9 on aromatase activity was investigated by both in vitro inhibition assay (A) and in-cell aromatase assay (B; MCF-7 aro cells, C; HepG2 cells, D; SK-BR-3 cells). Referring to FIG. 6A, aromatase inhibition study with Compound No. 1-9 was performed on a human placental microsomal aromatase preparation using the assay procedures described in (9). Referring to FIG. 6B, MCF-7 aro cells, which are stable aromatase-expressing cell line generated in our laboratory (10), were incubated with 10 μM of Compound No. 1-9. After 24 h incubation, aromatase activity was measured by [3H] H20 release method. HepG2 cells, as shown in FIG. 6C and SK-BR-3 cells as shown in FIG. 6D were also incubated with Compound No. 1-9 for 24 h, and aromatase activities were measured. Values represent the mean±SD.

[2] = target: T2, aromatase in MCF-7 aro cells (Homo sapiens, UniProt P11511); assay: In-cell aromatase assay ([3H] H2O release) in MCF-7 aro cells; type: cell-based; details: 10 μM, 24 h, FIG. 6B
T2 construct: expressed in transfected cells
T2 sequence (P11511 1-503): T1 sequence (P11511 1-503)
Description: as §1, §2

aromatase in HepG2 cells = assay: In-cell aromatase assay in HepG2 cells; type: cell-based; details: 24 h, FIG. 6C
Description: as §1, §2

ERRα = target: T3, ERRα (Homo sapiens, UniProt P11474); assay: Transient transfection assays, relative luciferase activity for ERRα (FIG. 7); type: cell-based
T3 sequence (P11474 1-423): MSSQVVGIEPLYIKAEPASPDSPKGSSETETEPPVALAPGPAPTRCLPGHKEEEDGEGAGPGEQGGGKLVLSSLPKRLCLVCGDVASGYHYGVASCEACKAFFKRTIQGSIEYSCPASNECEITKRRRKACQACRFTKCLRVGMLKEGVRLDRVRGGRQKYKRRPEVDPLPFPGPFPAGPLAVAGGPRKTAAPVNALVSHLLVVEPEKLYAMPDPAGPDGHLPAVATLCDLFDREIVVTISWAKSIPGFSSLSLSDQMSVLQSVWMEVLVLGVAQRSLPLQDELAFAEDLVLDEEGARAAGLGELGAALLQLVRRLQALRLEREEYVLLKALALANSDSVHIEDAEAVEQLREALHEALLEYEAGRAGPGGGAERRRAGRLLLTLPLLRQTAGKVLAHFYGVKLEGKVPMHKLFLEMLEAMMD
Description: HeLa cells were cultured in MEM Earle's salts medium supplemented with 5% charcoal/dextran-treated fetal bovine serum. Cells were then divided and cultured in 6-well plates until 80% confluence was achieved. The cells were next transfected with 4 μg Lipofectin. An equal amount of total DNA was used in all transfections by including appropriate amounts of the empty vector, pSG5, in addition to specific amounts of pSG5-ERRα and luciferase reporter plasmids (ERRE (ERRα recognizes an ERE half site)-containing reporter and aromatase promoter I.3-containing reporter). Following an overnight incubation, the medium containing Lipofectin and DNA was removed, and the cells cultured in a growth medium containing 5% charcoal/dextran-treated fetal bovine serum with or without ligands. After a 24-hour incubation, the cells was harvested from the plates by scraping, and the luciferase activities in the cell lysates (with the same amounts of protein) was measured according to the manufacturer's instructions (Promega). All experiments were performed in triplicate.
Referring to FIG. 2, we have also prepared GAL4-ERRα expression plasmid and luciferase reporter plasmids with GAL4 response element. This is a more sensitive assay method than that using pSG5-ERRα and ERE luciferase reporter plasmids.
The 2-methoxyl group may be important for the antagonistic activity of the chalcone. […]

Effect on aromatase activity, in vitro assay [1]: did not inhibit aromatase activity
Effect on aromatase activity, in-cell assay, MCF-7 aro cells [2]: did not inhibit aromatase activity
IC50 (ERRα; read-out: IC50 values through transient transfection assays): 700 to 2000 nM
Compound: COc1cccc(/C=C/C(=O)c2ccc(O)cc2O)c1OC [Compound No. 1-9, 2′,4′-Dihydroxy-2,3-dimethoxychalcone]
Effect on aromatase activity, HepG2 cells (aromatase in HepG2 cells): inhibited aromatase activity in a dose-dependent manner
Effect on constitutive activity of ERRα (relative luciferase activity) (ERRα; compared to DMSO control, FIG. 7): can suppress the constitutive activity of ERRα
